The values that follow come from article PMC7125515 (Bioorganic & Medicinal Chemistry, 2011).

Assay [1] has as its system herpes- and poxviruses. Description: organism not typed. It is filed as cell-based. The conditions noted are these: for Selectivity index (ratio CC50:EC50), HCMV / Selectivity index (ratio CC50:EC50), HSV / Selectivity index (ratio CC50:EC50), VZV: CC50 in HEL; for Selectivity index (ratio CC50:EC50), VZV: different VZV strains; for Activity against herpes- and poxviruses (in words): DNA viruses: VACV, HSV-1, HSV-2, TK- HSV-1, VZV; for Selectivity index (ratio CC50:EC50), HCMV / Activity against herpes- and poxviruses (in words): HCMV.

Assay [2] deals with Vaccinia virus Lederle strain. Format: cell-based.
In assay [3] the target is hypoxanthine-guanine-xanthine phosphoribosyltransferase (HGXPRT). The conditions noted are these: read-out: Ki, HGXPRT; Plasmodium falciparum enzyme; cited from earlier work.

“Also recorded” adds a separate entry of the source.

`Nc1ccn(C[C@@H](CO)OCP(=O)(O)O)c(=O)n1.O.O` [Cidofovir, reference compound]: in assay [1], the “Selectivity index (ratio CC50:EC50), HCMV” value is listed as 195–282; the “Selectivity index (ratio CC50:EC50), HSV” value was 322–363; the “Selectivity index (ratio CC50:EC50), VZV” value was 880–2540.
As usually defined, the EC50 is the concentration at which the effect is half-maximal. `CC(CP(=O)(O)O)OCCn1cnc2c(N)ncnc21` (centres unmarked) [Compound 9a, 9-[2-(1-Phosphonopropan-2-yloxy)ethyl]adenine]: in assay [1], the “Selectivity index (ratio CC50:EC50), HCMV” value is listed as 14–15; the “Selectivity index (ratio CC50:EC50), HSV” value is 6–10; the “Selectivity index (ratio CC50:EC50), VZV” value is on record as 120–190. For the same compound, the 50% effective concentration (EC50) in assay [1] (read-out: EC50 values against different human herpesviruses (range)) lay in the range of 70 to 2300 nM. The “Selectivity index (ratio CC50:EC50), vaccinia virus” value in assay [2] was less than 1.
With `Nc1ncnc2c1ncn2CCOC(COCc1ccccc1)CP(=O)(O)O` (centres unmarked) [Compound 9d, 9-[2-(3-Benzyloxy-1-phosphonopropan-2-yloxy)ethyl]adenine], the “Activity against herpes- and poxviruses (in words)” value in assay [1] was “inactive”.
The same measure, in the same setting: the result for `Nc1ncnc2c1ncn2CCOC(CO)CP(=O)(O)O` (centres unmarked) [Compound 9e, 9-[2-(3-Hydroxy-1-phosphonopropan-2-yloxy)ethyl]adenine] reads “inactive; also recorded: annihilated the anti-DNA virus activity”; that for `CC(CP(=O)(O)O)OCCn1cnc2c(N)nc(N)nc21` (centres unmarked) [Compound 14, 9-[2-(1-Phosphonopropan-2-yloxy)ethyl]diaminopurine], “inactive”; that for `Cc1cn(CCOC(CO)CP(=O)(O)O)c(=O)[nH]c1=O` (centres unmarked) [Compound 15e, 9-[2-(3-Hydroxy-1-phosphonopropan-2-yloxy)ethyl]thymine], “inactive”.
The Ki is the equilibrium dissociation constant of an inhibitor or competing ligand from its target. Consider `Nc1nc2c(ncn2CCOCCP(=O)(O)O)c(=O)[nH]1` [PEEG], for which, in assay [3], the Ki is 100 nM.
`O=c1[nH]cnc2c1ncn2CCOCCP(=O)(O)O` [PEEHx]: in assay [3], the Ki was 300 nM.
